From patent US4894459A, “Process for the preparation of morphologically homogeneous forms of thiazole derivatives” (Richter Gedeon Vehyeszeti Gyar Rt., priority 1986, dated 1990)
In brackets after ≈: the same amount, converted by molar mass.

Columns and labels:
[1] = tested on: histamine-H2 receptor; settings: well known; cited from earlier work
[2] = medium with a pH lower than 3
[3] = for Deformity ratio: ratio of longitudinal axis and greatest diameter, average of 250 grains
Experimental: (G) The Deformity Ratio of the Crystals
Deformity ratio means the ratio of the longitudinal axis and greatest diameter of the crystal.
The data were determined from the measurement of 250-250 grains by averaging.

[4] = 10 mg in 100 ml distilled water
[5] = physchem; settings: for solubility at 5 h: distilled water, water, Saturation solubility, 5 hours stirring, UV at 277 nm
Experimental: The investigation was made as follows: the different forms were stirred in distilled water for 5 hours, and the concentration of the material in solution was determined by ultraviolet spectroscopy at 277 nm wavelength.

[6] = for Electrostatic charging: amount of stuck material after knocking / Electrostatic charging: amount of stuck material without knocking: 37 g in glass dish of 120 mm, 1 minute rubbing; for Electrostatic charging: amount of stuck material after knocking: dish knocked 10 times
Experimental: (J) Electrostatic Charging
As there is no simple procedure to be carried out in an organic chemistry laboratory, the data presented below were measured as follows: Into a glass dish of 120 mm diameter 37 g of one of the forms were transferred and then the sample was stirred for 1 minute with rubbing with a flattened end glass-rod. Following this, the content of the dish was poured out without shaking, and the amount of stuck material was measured on a balance. Then the measurement was repeated so that the dish was knocked 10 times.

[7] = for Compaction ratio: with / without compaction; for Bulk density with compaction: hand-vibrator for 5 minutes
[8] = for Rolling angle (basic angle of the cone): funnel with tube of 5 mm diameter, opening 10 cm above the level of the material
Experimental: The data given here were measured according to the following scheme:
The form to be tested was filled into a funnel provided with a tube of 5 mm diameter, then the funnel was set into a position so that its opening was 10 cm above the level of the material.

[9] = 95:5 mixtures, water, 24 hours at 60° C.
Experimental: (I) Thermodynamic Stability
The test was made as follows: a mixture of the different forms in a ratio of 95:5 for both derivatives contaminated with the other polymorph was prepared, then the system was stirred with a magnetic stirrer for 24 hours at 60° C. so that water only covered the crystals. The crystals were then filtered and morphologically studied.

[10] = form "A" vs form "B"

| Deformity ratio [3] | Dynamic solubility at 2 min [4] [µg/mL] | Dynamic solubility at 5 min [4] [µg/mL] | Dynamic solubility at 10 min [4] [µg/mL] | Dynamic solubility at 1 hour [4] [µg/mL] | Electrostatic charging: amount of stuck material after knocking [6] [g] | Electrostatic charging: amount of stuck material without knocking [6] [g] | Compaction ratio [7] | Bulk density with compaction [7] [g/L] | Bulk density without compaction [7] [g/L] | Rolling angle (basic angle of the cone) [8] | Thermodynamic stability [9] | SMILES | also measured |
| --- | --- | --- | --- | --- | --- | --- | --- | --- | --- | --- | --- | --- | --- |
|  |  |  |  |  |  |  |  |  |  |  |  | N=C(N)Nc1nc(CSCCC(=N)NS(N)(=O)=O)cs1 [Famotidine, N-sulfamoyl-3-(2-guanidino-thiazole-4-yl-methylthio)-propionamidine] | histamine-H2 receptor blocking effect [1]: excellent; Hydrolysis of the amidino group [2]: highly capable of hydrolysis |
| 4.70 | 25 | 40 | 51 | 76 | 10.0 | 13 | 1.47 | 505 | 340 | more than 55 ° | metastabile | NC(N)=Nc1nc(CSCCC(N)=NS(N)(=O)=O)cs1 [Form "B", N-sulfamoyl-3-(2-guanidino-thiazole-4-yl-methylthio)-propionamidine] | Deformity ratio, times higher than form "A" ([3]; form "B" vs form "A"): 3.3 times; solubility at 5 h ([5]; unit given as mg): 980 µg/mL (≈ 2900 µM); Saturation solubility, comparison in words ([5]; form "B" vs form "A"): significantly higher; Electrostatic charging: amount attracted, times more than form "A" ([6]; form "B" vs form "A"): 20 times; Slope of piled up sample at the beginning ([8]; rolling angle test, footnote x, correct rolling angle not measurable): 80-85 ° |
| 1.40 | 19 | 25 | 42 | 72 | 0.5 | 2.8 | 1.38 | 960 | 695 | 41-42 ° | stabile | NC(N)=Nc1nc(CSCCC(N)=NS(N)(=O)=O)cs1 [Form "A", N-sulfamoyl-3-(2-guanidino-thiazole-4-yl-methylthio)-propionamidine] | solubility at 5 h [5]: 860 µg/mL (≈ 2550 µM); Handling and stability, comparison in words [10]: unambiguously more advantageous |
